Results published in patent US20120034162A1, “Fullerene Assisted Cell Penetrating Peptides” (William March Rice University, priority 2006, published 2012).
Entries after “also recorded” stand apart in the source; their conditions may differ.

Key:
[1] = type: in vitro ADME, bovine
Source text: Peptide stability. In order to test the stability of the fullerene peptide linkage, samples of Baa-Lys(FITC)-Lys8-OH and H-Baa-Lys(FITC)-NLS were exposed to bovine plasma for up to 3 days and analyzed by HPLC.

HEK-293a cells [2] = experiment: Cellular uptake by fluorescence microscopy; type: cell-based, human
HEK-293a cells [3] = experiment: Cellular uptake by fluorescence microscopy; type: cell-based, human; remark: listed apart in the source
Method: Cellular uptake. An immortalized human embryonic kidney epithelial cancer cell line was used in initial cellular uptake studies. HEK-293a cells were cultured in RMPI 1640 medium supplemented with 10% fetal bovine serum (FBS) in 5% CO2 and 37° C. humidified incubator. The medium was supplemented with penicillin (100 U·mL^−1), streptomycin (100 μg/mL), and glutamine (2 mM). For experiments and microscopy, cells were seeded at 1×10^4 cells per well on 6-well plates and grown for two days in RPMI supplemented with 10%. Cells were incubated with each peptide (40 μM) for 24 hrs at 37° C. After treatment, the cells were washed with RPMI supplemented with 10% FBS and phosphate buffered saline (PBS, 10 mM). Fluorescence was observed by a fluorescent microscope equipped with FITC and red filters.

[4] = Peptide aggregation, particle size in solution by dynamic light scattering (DLS); type: physicochemical; conditions: PBS buffer
Method: Rink amide and Wang resin were obtained from Novabiochem, USA. Amino acids were purchased from Novabiochem and used as received. MALDI-TOF mass analysis was performed on a linear Protein-TOF Bruker instrument using sinipinic acid as the matrix. CD spectra were obtained on a Jasco J-700 dichrometer using 1 mm path-length quartz cells. Peptide solutions were 1.0 mg·mL^−1 solution in milliQ H2O or PBS buffer. In the case of peptides (21, 22 and 23), the pH was first adjusted to 10 to break up any aggregations and then adjusted by addition of 0.1 mM HCl until the desired pH was obtained. CD spectra were recorded in millidegrees and converted to residual molar ellipticity. TEM measurements were performed on a JEOL 2010 TEM at 200 kV. DLS Measurements were performed on the samples using an Brookhaven 90Plus submicron particle-size analyzer with HeNe laser (30 mW) that operates at […] wavelength.
With reference back to Table 1, in order to understand the intracellular transport of the FITC functionalized Baa-peptides, 25 and Baa-Lys(FITC)-NLS (26), their particle size in solution was determined by dynamic light scattering (DLS). Three series of solutions of 24, 25 and 26 in the range of 0.125-2.0 mg/mL was prepared by weighing method. PBS buffer prepared from HPLC grade water was used as solvent and was filtered through a […] cup filter (Millipore, Express).

[5] = Aggregate size and morphology by cryo-TEM; type: physicochemical; conditions: 1.0 mg/mL in PBS buffer, pH 7
Method: To further examine the actual aggregate size and morphology, cryo-TEM experiments were performed for both peptides 25 and 26. The images were taken in the concentration of 1.0 mg/mL for both peptides. Samples for cryo-TEM studies were prepared by dipping a copper grid coated with amorphous carbon-holey film into the sample solution. The TEM images were mainly taken in the hole region of the TEM grid to minimize the artificial effect from the samples or ice. […] Both peptides forms spherical and ellipsoidal clusters, with an average aggregate sizes of 40-80 nm for 25 and 50-150 nm for 26, which are generally smaller than the diameters observed by DLS. Consistent with the DLS study, Baa-Lys(FITC)-Lys8-OH (25) are more uniform in size than Baa-Lys(FITC)-NLS (26). FIGS. 9a and 9b show the vitreous ice cryo-TEM micrograph of the large aggregates (9a) and small aggregates (9b) formed by Baa-Lys(FITC)-Lys8-OH in PBS buffer (1 mg/mL at pH=7). There are two dominant groups in size for 25; one type has the diameter of 40-80 nm with predominant population at size of ca. 50 nm, and the other population has a diameter less than 20 nm, which may correspondent to the size of fullerene peptides itself. In contrast, the size distribution of 26 large aggregates is much polydisperse, ranging from 50-150 nm with no obvious dominant population for large aggregates, while smaller aggregates has similar size as Baa-Lys(FITC)-Lys8-OH. FIGS. 10a and 10b show the vitreous ice cryo-TEM micrograph of the large aggregates (10a) and small aggregates (10b) formed by Baa-Lys(FITC)-NLS in PBS buffer (1 mg/mL at pH=7). The aggregate sizes from the two peptides seem to be consistent with the hydrophilicity of peptide chain as more hydrophilic sequence corresponds to smaller size (25), and vice versa (26).

Baa-Lys(FITC)-(Lys)8-OH [Peptide 25]
degradation of the sample in bovine plasma [1]: No degradation | cellular uptake at 4° C. (HEK-293a cells [2]): no cellular uptake activity | cellular uptake / localization by fluorescence (HEK-293a cells [3]; 40 μM, 24 hrs, 37° C., listed as H-Baa-Lys(FITC)-Lys8-OH): strong green fluorescence within the cytoplasm; also recorded: accumulates in the cytoplasm | Active Cellular Uptake (HEK-293a cells [3]; HEK-293a cells): Yes | aggregate size, minor smaller component [4]: ca. 10 nm | fraction of major aggregate component [4]: ca. 60% | third larger aggregate size at high concentration ([4]; 2.0 mg/mL (25), above 1.0 mg/mL (26)): ca. 1500 nm | distribution of minor smaller aggregate ([4]; 0.125-1.0 mg/mL): 5-20 nm | aggregate size, major (or single) component ([4]; 0.125-2.0 mg/mL): ca. 180 nm | average aggregate size (large aggregates) [5]: 40-80 nm | diameter of small aggregate population [5]: less than 20 nm | predominant population size of large aggregates [5]: ca. 50 nm
